Results published in article PMC5201116, “Bioactive Flavonoids and Catechols as Hif1 and Nrf2 Protein Stabilizers - Implications for Parkinson’s Disease” (Aging and Disease, 2016).

How the values were obtained:
[1] = test system: C57Bl6 mice, MPTP model of Parkinson's disease; assay: Acute MPTP mouse model: striatal dopamine and metabolites by HPLC; type: in vivo
Method: Acute MPTP-intoxication paradigm was used to test the neuroprotective effects of NDGA using male C57Bl6 mice. In this protocol, 10-week-old C57Bl6 mice (n = 8-10 per group) were divided into four different groups consisting of 1) a control group treated with saline alone; 2) a group treated with MPTP alone; 3) a group treated with NDGA alone and; 4) group treated with NDGA in combination with MPTP. NDGA was dissolved in 1:4 ethanol:neobee oil (a derivative of coconut oil). MPTP 10 mg/kg free base was administered intraperitoneally three times a day every two hours. Animals with NDGA in combination with MPTP were administered NDGA by oral gavage with 50 and 100mg/kg/day body weight of the drug in 100 microliter volume once a day for 4 days before MPTP and once a day for 3 days after MPTP. On the day of MPTP NDGA was administered to mice 2 hours before the initiation of MPTP. Animals belonging to MPTP and control groups received the vehicle (ethanol:neobee oil, 1:4) whereas the drug alone group received respective doses of NDGA at the same frequency. All animals were sacrificed on the 7th day after MPTP.
Striatal levels of dopamine (DA) and its metabolites 3, 4-dihydroxyphenylacetic acid (DOPAC), and homovanillic acid (HVA) were measured after sonication and centrifugation in chilled 0.1 M perchloric acid (PCA, 100 µl/mg tissue) as previously described. Briefly, 15 µl supernatant was isocratically eluted through an 80 x 4.6 mm C18 column (ESA, Inc. Chelmsford, MA) with a mobile phase containing 0.1 M LiH2PO4, 0.85 mM 1-octanesulfonic acid and 10% (v/v) methanol and detected by a 2-channel Coulochem II electrochemical detector (ESA, Inc. Chelmsford, MA). Concentrations of dopamine, DOPAC and HVA are expressed as ng per mg protein. The protein concentrations of tissue homogenates were measured according to BCA assay (Pierce Biotech). For MPP+ measurement NDGA was administered at a dose of 100mg/kg/day once daily for four days followed by a dose on the 5th day 30 minutes before MPTP (30mg/kg free base). Striatal tissues were sonicated and centrifuged in 0.1 M PCA and an aliquot of supernatant was injected onto a Brownlee aquapore x 03-224 cation exchange column (Rainin, Woburn, MA). Samples were eluted isocratically with 20 mM boric acid-sodium borate buffer, pH 7.75, containing 3 mM tetrabutylammonium hydrogen sulfate, 0.25 mM 1-heptanesulfonic acid and 10% isopropanol. MPP^+ levels were detected with a fluorescence detector set by excitation at 295 nm and emission at 375nm.

[2] = test system: VEGF mRNA in immature primary cortical neurons; assay: VEGF mRNA induction, real-time RT-PCR; type: cell-based; settings: Fig. 4B
Method: For VEGF gene expression studies, total RNA was isolated from immature primary cortical neurons, pretreated overnight with the indicated concentration of a bioactive compound, using the NucleoSpin RNA II kit (Macherey-Nagel, Bethlehem, PA) according to manufacturer’s protocol. Real-time PCR was performed in triplicate as a duplex reaction using a VEGF (Mm01281449_m1) gene expression assay with a 6-carboxyfluorescein-labeled probe, and a β actin gene expression assay with a VIC-labeled probe (Applied Biosystems, Foster City, CA), so that gene amplification could be normalized to β actin. These experiments were performed using a 7500 Real-time PCR System (Applied Biosystems) using standard PCR protocol and amplification conditions.

[3] = test system: primary neuronal cultures treated with 5 mM HCA; assay: Glutathione depletion (HCA) model, MTT viability; type: cell-based, rat; settings: glutathione depletion model, Fig. 5
Method: Primary neuronal cultures were prepared from the forebrains of Sprague-Dawley rat embryos (E17) and plated on 96 well plates at a 10^6 cells/ml density. After 24 hours, cells were rinsed with warm PBS and then placed in minimum Essential Medium (MEM; Life Technologies, Grand Island, NY) containing 5 mM HCA in the presence of a compound of interest at varied concentrations. Cells were incubated for 24 h or longer to see 90% cell death in HCA treated controls. Viability was assessed by the MTT (4,5-dimethylthiazol-2-yl)-2,5-diphenyltetrazolium bromide) assay.

[4] = test system: Neh2-luc reporter (SH-SY5Y cell line); assay: Neh2-luc reporter assay; type: cell-based; settings: Homo sapiens, SH-SY5Y
Method: SH-SY5Y cell lines stably expressing HIF1 ODD-luc or Neh2-luc reporters were grown in the DMEM/F12 supplemented with GlutaMAX (Thermo Fisher Scientific) containing 10% FBS, 100 U/ml penicillin, and 100 μg/ml streptomycin and plated into 384-well white flat-bottom plates at 7,000 cell/well in 30 µl serum and incubated overnight at 37°C, 5% CO2. The next day compounds were added to a final concentration of 10 µM and the plates were incubated for 3 hours at 37°C. Reporter activation after 3 h incubation with the studied compound was compared to that for ciclopirox (HIF1 ODD-luc reporter) or TBHQ (Neh2-luc reporter), taken as 100%. Luciferase reporter activity was measured with a SteadyGlo reagent from Promega providing stable reading for 1 h.
Cells were plated at the density of 25,000 cell per well using a WellMate multichannel dispenser from Matrix (Thermo Fisher Scientific, Waltham, MA) and grown overnight on DMEM/F12+GlutaMAX (100 µl per well). Then an inhibitor was added, and the plates were incubated for a fixed time interval; the medium was removed, cells lysed, and luciferase activity was measured on a SpectraMax M5e platereader (Molecular Devices, Sunnyvale, CA) with BrightGlo™ reagent (Promega, Madison, WI). The reporter activation was normalized to the background luminescence. The effect of 0.5 mM N-acetylcysteine (NAC) was studied by simultaneous addition of 5 µL of 10 mM stock of NAC in water and 2 µL of 50x stock solutions of a flavonoid in DMSO.

HO-1 mRNA in brain = assay: Brain HO-1 mRNA levels after NDGA; type: in vivo, mouse; settings: 6 hours after last dose, data not shown
Method: We used an acute paradigm of MPTP administration (10 mg MPTP/kg X 3, every two hours), known to cause about a 50% loss of striatal dopamine and its metabolites DOPAC and HVA and significant loss of tyrosine hydroxylase (TH) immunopositive neurons in the substantia nigra pars compacta (SNpc) on the 7th day. […] The doses that were used to determine the efficacy of NDGA against MPTP were determined by evaluation of brain HO-1 levels. Both 50 and 100 mg/kg administered twice a day induced a dose dependent increase in HO-1 mRNA levels at 6 hours after last dose of NDGA.

[5] = NDGA+MPTP group, NDGA 100mg/kg/day oral, 7th day after MPTP

CC(Cc1ccc(O)c(O)c1)C(C)Cc1ccc(O)c(O)c1 (centres unmarked) [compound 28, 4,4'-(2,3-dimethylbutane-1,4-diyl)dibenzene-1,2-diol]
protection against MPTP-induced loss of striatal dopamine, DOPAC and HVA ([1]; NDGA 50mg/kg/day): not
protection against MPTP-induced loss of striatal dopamine, DOPAC and HVA ([1]; NDGA 100mg/kg/day): protected
Striatal DOPAC ([1]; NDGA alone group, oral gavage): 7.59 ± 1.35 ng/mg protein
Striatal DOPAMINE ([1]; NDGA alone group, oral gavage): 88.4 ± 6.2 ng/mg protein
Striatal HVA ([1]; NDGA alone group, oral gavage): 7.5 ± 1.66 ng/mg protein
Striatal DOPAC [1, 5]: 6.04 ± 1.14 ng/mg protein
Striatal DOPAMINE [1, 5]: 55.3 ± 5.7 ng/mg protein
Striatal HVA [1, 5]: 7.4 ± 0.96 ng/mg protein
VEGF induction potency relative to FG-4592 [2]: at least 2 times
concentration at which neuroprotection begins [3]: 2.5 µM
EC50 ([4]; Neh2-luc): 2000 nM
fold induction at 10 µM ([4]; at 10 µM, 3 h incubation, read-out: Neh2-luc fold activation): 15 ± 1.8
increase in HO-1 mRNA levels (HO-1 mRNA in brain; 50 mg/kg twice a day): 1.2 fold
increase in HO-1 mRNA levels (HO-1 mRNA in brain; 100 mg/kg twice a day): 6 fold
